The experiment addresses CB1 (mutant) (Homo sapiens, UniProt P21554). The experiment in a line: R-SAT functional receptor assay, CB1 (mutant, truncated after amino acid 417). It is filed as cell-based. The settings on record: Appendix A, R-SAT CB1; for IC50: receptor form (mutant or wild-type) not stated, read-out: pIC50 (converted); for Emax: receptor form not stated, relative to SR141716 (100%), read-out: % Inhibition.

Sequence of CB1 (mutant) (P21554 1-417, change not shown): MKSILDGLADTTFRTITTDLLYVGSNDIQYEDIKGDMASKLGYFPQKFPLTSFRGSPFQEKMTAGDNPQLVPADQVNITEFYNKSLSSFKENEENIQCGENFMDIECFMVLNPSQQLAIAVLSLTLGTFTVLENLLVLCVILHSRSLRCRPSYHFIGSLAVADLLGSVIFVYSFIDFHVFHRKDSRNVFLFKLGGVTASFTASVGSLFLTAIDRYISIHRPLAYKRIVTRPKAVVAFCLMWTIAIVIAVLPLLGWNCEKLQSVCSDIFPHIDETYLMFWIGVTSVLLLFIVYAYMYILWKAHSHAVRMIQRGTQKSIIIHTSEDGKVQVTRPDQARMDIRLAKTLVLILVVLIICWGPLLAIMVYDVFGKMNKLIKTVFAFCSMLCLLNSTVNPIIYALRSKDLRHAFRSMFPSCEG

Regarding `O=C(NCCc1ccccn1)c1ccc2c(c1)N=C(c1cccc(F)c1)c1ccccc1S2`, the IC50 was 50.1 nM and the Emax worked out at 91%.

Consider `CCONC(=O)c1ccc2c(c1)N=C(c1ccc(Cl)s1)c1ccccc1S2`, for which the IC50 is 50.1 nM and the Emax turned out to be 97%. On to `CCCC1=Nc2cc(C(=O)N3CCC(C(=O)OCC)CC3)ccc2Sc2ccccc21`, for which the IC50 is 200 nM and the Emax is 108%. As for `O=C(NCCc1cccnc1)c1ccc2c(c1)N=C(c1ccc(Cl)cc1Cl)c1ccccc1S2`, the IC50 was 200 nM and the Emax was 74%. The like results for `O=C(NCc1cccs1)c1ccc2c(c1)N=C(c1ccccc1Cl)c1ccccc1S2` were, in that order, 200 nM and 87%. For `CCCC1=Nc2cc(C(=O)N3CCN(c4ccc(F)cc4)CC3)ccc2Sc2ccccc21` the same measures were 251 nM and 108%. The like results for `O=C(NC1CCCCNC1=O)c1ccc2c(c1)N=C(c1ccc(F)cc1)c1ccccc1S2` (stereo not shown) were, in that order, 251 nM and 83%. As for `CCCCNC(=O)c1ccc2c(c1)N=C(c1ccccc1OC)c1ccccc1S2`, the IC50 was 251 nM and the Emax was 80%. For `O=C(NN1CCOCC1)c1ccc2c(c1)N=C(c1ccc(Cl)cc1)c1ccccc1S2` the same measures were 251 nM and 75%. For `CCCCCC1=Nc2cc(C(=O)NN3CCCCC3)ccc2Sc2ccccc21` the same measures were 251 nM and 100%. For `Cc1ccc(N2CCN(C(=O)c3ccc4c(c3)N=C(CC(C)C)c3ccccc3S4)CC2)c(C)c1`, the IC50 is 251 nM and the Emax was found to be 105%. The like results for `O=C(NNC(=O)c1ccc2c(c1)N=C(c1ccc(Br)cc1)c1ccccc1S2)c1ccccc1` were, in that order, 251 nM and 88%. The like results for `CCCC1=NC2=C(CCC(C(=O)N3CCN(c4ccccc4F)CC3)=C2)Sc2ccccc21` were, in that order, 251 nM and 97%. The like results for `Cc1cc(Cl)ccc1C1=Nc2cc(C(=O)NC3CCCCC3)ccc2Sc2ccccc21` were, in that order, 251 nM and 83%. As for `CCCC1=Nc2cc(C(=O)NCCc3ccc(SC)cc3)ccc2Sc2ccccc21`, the IC50 was 251 nM and the Emax was 103%.

In the case of `CC(C)NC(=O)c1ccc2c(c1)N=C(c1ccccc1F)c1ccccc1S2`, the IC50 is 251 nM and the Emax was found to be 82%. The like results for `CCCC1=Nc2cc(C(=O)NC3CCN(C(=O)OCC)CC3)ccc2Sc2ccccc21` were, in that order, 251 nM and 77%. The like results for `COc1ccc(C2=Nc3cc(C(=O)NC4CCCCNC4=O)ccc3Sc3ccccc32)cc1` (stereo not shown) were, in that order, 251 nM and 62%.

Take `CCCC1=Nc2cc(C(=O)N3CCN(c4cccc(C(F)(F)F)c4)CC3)ccc2Sc2ccccc21`: the IC50 is 251 nM and the Emax worked out at 91%. The like results for `O=C(NC1CCCCC1)c1ccc2c(c1)N=C(c1ccccc1Cl)c1ccccc1S2` were, in that order, 251 nM and 67%.

With `CCCCN(C)C(=O)c1ccc2c(c1)N=C(c1ccccc1F)c1ccccc1S2`, the IC50 was 251 nM and the Emax worked out at 77%.

For `O=C(NCCc1ccncc1)c1ccc2c(c1)N=C(c1ccccn1)c1ccccc1S2`, the IC50 was 251 nM and the Emax stood at 51%. For `CCCC1=Nc2cc(C(=O)NCCCN3CCOCC3)ccc2Sc2ccccc21` the same measures were 316 nM and 98%.

`COCCNC(=O)c1ccc2c(c1)N=C(c1ccc(Cl)cc1Cl)c1ccccc1S2`: the IC50 is 316 nM and the Emax came out at 69%. For `CCCC1=Nc2cc(C(=O)NCCCN3CCC(c4cc(Cl)ccc4C)CC3)ccc2Sc2ccccc21` the same measures were 316 nM and 117%. For `CCCC1=Nc2cc(C(=O)NCCCN3CCN(c4cc(C)ccc4C)CC3)ccc2Sc2ccccc21` the same measures were 316 nM and 126%. The like results for `O=C(NCc1ccccn1)c1ccc2c(c1)N=C(c1ccccn1)c1ccccc1S2` were, in that order, 316 nM and 81%. With `CCCCC1=Nc2cc(C(=O)N3CCN(c4ccc(C)cc4C)CC3)ccc2Sc2ccccc21`, the IC50 is 316 nM and the Emax turned out to be 104%.

Regarding `O=C(NCc1cccnc1)c1ccc2c(c1)N=C(c1ccccn1)c1ccccc1S2`, the IC50 was 316 nM and the Emax is 67%. `CCCC1=Nc2cc(C(=O)NCc3ccccc3)ccc2Sc2ccccc21`: the IC50 is 20 nM and the Emax worked out at 111%.

With `CN(NC(=O)c1ccc2c(c1)N=C(c1ccccc1F)c1ccccc1S2)C1CCCCC1`, the IC50 is 316 nM and the Emax was 74%. For `COc1ccccc1C1=Nc2cc(C(=O)NC3CCCCC3)ccc2Sc2ccccc21` the same measures were 316 nM and 72%. For `CCCCC1=Nc2cc(C(=O)NN3CCCCC3)ccc2Sc2ccccc21` the same measures were 316 nM and 82%.

Turning to `O=C(NCCc1ccncc1)c1ccc2c(c1)N=C(c1ccc(Cl)cc1Cl)c1ccccc1S2`, the IC50 is 316 nM and the Emax was found to be 72%. Turning to `O=C(NCCc1ccncc1)c1ccc2c(c1)N=C(c1ccccc1Cl)c1ccccc1S2`, the IC50 is 316 nM and the Emax was found to be 82%. The like results for `Cc1cccnc1C1=Nc2cc(C(=O)NCc3ccco3)ccc2Sc2ccccc21` were, in that order, 316 nM and 83%. Regarding `O=C(NCCc1cccnc1)c1ccc2c(c1)N=C(c1ccccn1)c1ccccc1S2`, the IC50 is 316 nM and the Emax turned out to be 77%. For `NS(=O)(=O)c1ccc(CNC(=O)C2C=C3N=C(N4CCCCC4)c4ccccc4SC3=CC2)cc1` (stereo not shown) the same measures were 398 nM and 78%. The like results for `O=C(NC1CCCC1)c1ccc2c(c1)N=C(c1ccccc1F)c1ccccc1S2` were, in that order, 398 nM and 79%. For `CONC(=O)c1ccc2c(c1)N=C(c1cccc(Cl)c1)c1ccccc1S2`, the IC50 is 398 nM and the Emax is 89%. The like results for `CCCC1=Nc2cc(C(=O)NCC3C=CC4=C(C3)OCO4)ccc2Sc2ccccc21` (stereo not shown) were, in that order, 398 nM and 91%. With `CCONC(=O)c1ccc2c(c1)N=C(c1ccccc1F)c1ccccc1S2`, the IC50 was 398 nM and the Emax was 73%. The like results for `CCCC1=Nc2cc(C(=O)NCCCN3CCN(c4ccccc4F)CC3)ccc2Sc2ccccc21` were, in that order, 398 nM and 120%. For `CONC(=O)c1ccc2c(c1)N=C(c1ccc(Cl)s1)c1ccccc1S2` the same measures were 398 nM and 66%. For `COCCNC(=O)c1ccc2c(c1)N=C(c1ccccn1)c1ccccc1S2` the same measures were 398 nM and 71%.

For the compound `O=C(NNC(=O)c1ccc2c(c1)N=C(c1ccc(Cl)cc1)c1ccccc1S2)c1ccccc1`, the IC50 is 398 nM and the Emax stood at 71%. The like results for `CCOC(=O)N1CCC(NC(=O)c2ccc3c(c2)N=C(CC(C)C)c2ccccc2S3)CC1` were, in that order, 398 nM and 89%. Take `CCCCN(CCCC)CCNC(=O)c1ccc2c(c1)N=C(CCC)c1ccccc1S2`: the IC50 is 398 nM and the Emax came out at 109%. On to `O=C(NCc1ccncc1)c1ccc2c(c1)N=C(N1CCCCC1)c1ccccc1S2`, for which the IC50 is 501 nM and the Emax came to 81%. As to `CCCCCC1=Nc2cc(C(=O)NC3CCN(C(=O)OCC)CC3)ccc2Sc2ccccc21`, the IC50 is 501 nM and the Emax was determined as 87%. For `O=C(NN1CCCCC1)c1ccc2c(c1)NC(C1CCCCC1)c1ccccc1S2` (stereo not shown) the same measures were 501 nM and 43%. With `CONC(=O)c1ccc2c(c1)N=C(c1sccc1C)c1ccccc1S2`, the IC50 is 501 nM and the Emax came to 45%. Regarding `CCCCC1=Nc2cc(C(=O)NC3CCN(C(=O)OCC)CC3)ccc2Sc2ccccc21`, the IC50 is 501 nM and the Emax worked out at 96%. The like results for `CCCNC(=O)c1ccc2c(c1)N=C(c1ncccc1C)c1ccccc1S2` were, in that order, 501 nM and 63%.

Take `Cc1cccnc1C1=Nc2cc(C(=O)NC3CCCCC3)ccc2Sc2ccccc21`: the IC50 is 501 nM and the Emax came to 61%. For `CONC(=O)c1ccc2c(c1)N=C(c1cccc(Br)c1)c1ccccc1S2` the same measures were 501 nM and 73%. The like results for `CCCCNC(=O)c1ccc2c(c1)N=C(CCC)c1ccccc1S2` were, in that order, 25.1 nM and 111%.

Regarding `CCCC1=Nc2cc(C(=O)NC)ccc2Sc2ccccc21`, the IC50 was 501 nM and the Emax amounted to 119%. The like results for `CONC(=O)c1ccc2c(c1)N=C(c1ccc(F)cc1)c1ccccc1S2` were, in that order, 501 nM and 65%. Regarding `CCOC(=O)c1ccc(C2=Nc3cc(C(=O)NCc4ccncc4)ccc3Sc3ccccc32)cc1`, the IC50 was 501 nM and the Emax is 69%. The like results for `CON(C)C(=O)c1ccc2c(c1)N=C(c1ccc(Cl)s1)c1ccccc1S2` were, in that order, 501 nM and 55%. For `O=C(NN1CCCCC1)c1ccc2c(c1)N=C(c1ccccc1Cl)c1ccccc1S2` the same measures were 501 nM and 45%.

Consider `O=C(NCc1cccnc1)c1ccc2c(c1)N=C(NCc1ccc(Cl)cc1)c1ccccc1S2`, for which the IC50 was 501 nM and the Emax is 76%. `O=C(NN1CCOCC1)c1ccc2c(c1)N=C(c1ccc(F)cc1)c1ccccc1S2`: the IC50 is 631 nM and the Emax is 77%.

As to `CCCC1=Nc2cc(C(=O)NCCCN3CC(C)CC(C)C3)ccc2Sc2ccccc21` (stereo not shown), the IC50 was 631 nM and the Emax turned out to be 136%. For `CC(C)NC(=O)c1ccc2c(c1)N=C(c1ccccc1Cl)c1ccccc1S2` the same measures were 631 nM and 46%.

With `CCCC1=Nc2cc(C(=O)NCCN3CCN(c4cccc(Cl)c4)CC3)ccc2Sc2ccccc21`, the Emax turned out to be 76%.

(Values after US20080090805A1, “CB-1 MODULATING COMPOUNDS AND THEIR USE” (ACADIA PHARMACEUTICALS INC., priority 2005, published 2008).)
